Structures can show the parent of a compound that is named as a salt.
How the values were obtained:
[1] = solution stability test (decomposition percentage from absorbance before and after standing); format: physicochemical; details: 5% (w/v) in ethanol/methyl ethyl ketone (1/1 by volume), room temperature, 10 days of standing
Procedure: A solution stability test was carried out in the following manner.
Each polymethine compound specified below in Table 1 was dissolved in a mixture of ethanol and methyl ethyl ketone (1/1 by volume) to a concentration of 5% (w/v) and the solution was allowed to stand in a room (at room temperature) for 10 days. The absorbance (gram extinction coefficient) of the solution was measured before and after standing, and the decomposition percentage was calculated using the following formula.
Decomposition percentage (%)=[(absorbance just after preparation of solution−absorbance after 10 days of standing)/(absorbance just after preparation of solution)]×100

[2] = solubility in methanol and ethanol; format: physicochemical; details: for solubility in ethanol: solvent ethanol; for solubility in methanol: solvent methanol

SMILES | melting point | Decomposition percentage [1] [%] | solubility in ethanol [2] [%] | solubility in methanol [2] [%]
CN1/C(=C\C=C2/CCC(/C=C/C3=[N+](C)c4ccccc4C3(C)C)=C2Cl)C(C)(C)c2ccccc21 (as salt: toluenesulfonate) (hydrate or solvate) [Example 1] | 199 to 200 °C (dec.) | – | – | –
CN1/C(=C\C=C2/CCC(/C=C/C3=[N+](C)c4ccccc4C3(C)C)=C2Cl)C(C)(C)c2ccccc21 (as salt: toluenesulfonate) (hydrate or solvate) [Example 3] | 198 to 199 °C (dec.) | – | – | –
CN1/C(=C\C=C2/CCC(/C=C/C3=[N+](C)c4ccccc4C3(C)C)=C2Cl)C(C)(C)c2ccccc21 [Comparative Example 1, reference compound] | – | 8.1 | – | –
CN1/C(=C\C=C2/CCC(/C=C/C3=[N+](C)c4ccccc4C3(C)C)=C2Cl)C(C)(C)c2ccccc21 [Example 5] | – | – | ≥ 15 | ≥ 15
CN1/C(=C\C=C2/CCC(/C=C/C3=[N+](C)c4ccccc4C3(C)C)=C2Cl)C(C)(C)c2ccccc21 (as salt: toluenesulfonate) (hydrate or solvate) [Example 2] | 201 to 203 °C (dec.) | – | – | –
CN1/C(=C\C=C2/CCC(/C=C/C3=[N+](C)c4ccccc4C3(C)C)=C2Cl)C(C)(C)c2ccccc21 [Example 3] | – | 2.2 | ≥ 15 | ≥ 15
CN1/C(=C\C=C2/CCC(/C=C/C3=[N+](C)c4ccccc4C3(C)C)=C2Cl)C(C)(C)c2ccccc21 [Example 1] | – | 2.0 | ≥ 15 | ≥ 15
CN1/C(=C\C=C2/CCC(/C=C/C3=[N+](C)c4ccccc4C3(C)C)=C2Cl)C(C)(C)c2ccccc21 [Example 2] | – | 2.1 | ≥ 15 | ≥ 15
CN1/C(=C\C=C2/CCC(/C=C/C3=[N+](C)c4ccccc4C3(C)C)=C2Cl)C(C)(C)c2ccccc21 [Example 4] | – | 1.9 | ≥ 15 | ≥ 15
